Data on 38 compounds can be found in publication PMC7268155 (F1000Research, 2020).

One may read the IC50 as the point on the concentration scale where inhibition reaches its midpoint. Usually inhibition stands for the change of the read-out against control, counted positive when it falls. The term viability denotes a read-out of living cells in per cent, often relative to untreated cells. The Inhibition is the change of the read-out against control, counted positive when it falls.

For series [1], the system named is Ebola virus replication (trVLP). Nature of the series: microbe, parasite or virus in culture. The class given is cell-based, Ebola Zaire. The conditions noted are these: for IC50 / inhibition at 10 µM: Zaire ebolavirus, HEK-293T; for IC50: read-out: IC50 to inhibit Ebola virus (trVLP) replication; for inhibition at 10 µM: read-out: Inhibition at 10µM (percent inhibition of trVLP replication).

For another series, the system named is Ebola virus disease. The conditions noted are these: mouse, in vivo; cited from earlier work.
For a further series, the system named is Plasmodium. The settings on record: cited from earlier work.
Another series can be described thus: in vitro. The settings on record: human, Viability at 10µM (MTT viability).
The subject of another series is HEK-293T cells. The settings on record: for Viability at 10µM (MTT viability): human.
In another series the test system is Leishmania spp. The conditions noted are these: cited from earlier work.
In another series the test system is Ebola virus. The settings on record: cited from earlier work.

Where a name gives a salt, the structure may show the parent alone.

For `CCN(CC)CCCC(C)Nc1ccnc2cc(Cl)ccc12` (centres unmarked) [Chloroquine, Chloroquine diphosphate, reference compound], in series [1], the “inhibitory activity in trVLP assay (in words)” value (from here on “inhibitory activity”) is reported as “significant reductions in luciferase activity”, the IC50 is 3.95 µM and the inhibition at 10 µM was found to be 92.2 ± 6.23%. The “protection against Ebola virus disease” value with Ebola virus disease is on record as “protective”. Also, the antiplasmodial activity entry with Plasmodium is “antiplasmodial activity”. Besides, the viability at 10 µM in the series “in vitro” turned out to be 106 ± 1.24%.
For the compound `CCCCCc1ccc2ccccc2n1` [BS460], in series [1], the “Inhibition at 10µM (percent inhibition of trVLP replication)” value stood at 4.04± 44.15%. In the series with Plasmodium, the antiplasmodial activity entry is “antiplasmodial activity”. In the series “in vitro”, the viability at 10 µM is 107.5 ± 0.59%.
Regarding `O=C(c1ccc([N+](=O)[O-])cc1)c1ccc2ccc(/C=C/c3ccc(O)c(O)c3)nc2c1O` [MBN87], the inhibition at 10 µM in series [1] was -17.9 ± 51.8%. Moreover, the viability at 10 µM in the series “in vitro” was determined as 70.5 ± 0.78%.
Take `O=C(O)/C=C/c1ccc2ccccc2n1` [2COOHQ]: in series [1], the “inhibitory activity” value is on record as “strongly reduced the antiviral inhibition” and the inhibition at 10 µM turned out to be 30.6 ± 6.15%. For the same compound, the “toxicity / cell viability (in words)” value with HEK-293T cells is reported as “good cell viability”. Moreover, in “in vitro”, the viability at 10 µM was 88.5 ± 1.54%.
Regarding `Cc1ccc2ccc(C(=O)NCc3ccc(F)cc3)c(O)c2n1` [DD2], in series [1], the “inhibitory activity” value is reported as “having inhibitory activity” and the inhibition at 10 µM amounted to 80.8 ± 1.38%. In the series “in vitro”, the viability at 10 µM turned out to be 77 ± 4.78%.
With `CCn1cc(C(=O)O)c(=O)c2ccc(/C=C/c3ccc(O)c(O)c3)nc21` [DD8], in series [1], the inhibition at 10 µM was -74 ± 101%. For the same compound, the viability at 10 µM in “in vitro” came out at 91.54 ± 0.41%.
Take `Cc1ccc2ccc(Br)c(O)c2n1` [DD1]: in series [1], the “inhibitory activity” value is listed as “having inhibitory activity” and the inhibition at 10 µM was found to be 90.5 ± 8.32%. Further, the viability at 10 µM in the series “in vitro” was determined as 59.69 ± 0.03%.
For `O=C(CC(=O)c1ccc2ccc(C(=O)O)c(O)c2n1)c1ccccc1` [TOF411] the same measures were “having inhibitory activity”, 71.04 ± 0.67% and 104.9 ± 0.6%.
In the case of `N#Cc1ccc2ccc(/C=C/c3ccc(O)c(O)c3)nc2c1O` [KHD291], in series [1], the inhibition at 10 µM is -68.1 ± 58.1%. Further, the viability at 10 µM in the series “in vitro” worked out at 71.17 ± 0.12%.
Take `C(=C\c1ccc2ccccc2n1)/c1ccc2ccccc2n1` [2QQ]: in series [1], the “inhibitory activity” value was “having inhibitory activity” and the inhibition at 10 µM turned out to be 74.3 ± 13.4%. Further, the viability at 10 µM in the series “in vitro” is 57.31 ± 0.29%.
With `OC/C=C/c1ccc2ccccc2n1` [2OHQ], in series [1], the “inhibitory activity” value was “having inhibitory activity”, the “Inhibition at 10µM (percent inhibition of trVLP replication)” value is listed as 89.69± 4.09% and the inhibition at 10 µM is 89%. Besides, the “Viability at 10µM (MTT viability)” value in the series on HEK-293T cells was determined as 31.15± 1.27%. Also, in the series on Leishmania spp., the “activity against Leishmania” value was “in vitro and in vivo activities”. In addition, the viability at 10 µM in “in vitro” came to 31%.
Consider `Oc1cccc2ccc(/C=C/c3ccc4cccc(O)c4n3)nc12` [KHD288], for which the inhibition at 10 µM in series [1] was -8.41 ± 60.4%. In the series “in vitro”, the viability at 10 µM worked out at 62.7 ± 0.72%.
The corresponding values for `O=C(O)c1ccc2ccc(/C=C/c3cccnc3)nc2c1O` [DD6] are -8.49 ± 18.6% and 96.7 ± 2.01%.
The corresponding values for `CC(=O)Nc1ccc(/C=C/c2ccc3ccc(C(=O)O)c(O)c3n2)cc1` [FZ49] are 21.8 ± 28.4% and 72.7 ± 1.22%.
In the case of `Cc1ccc2ccc(C(=O)c3ccc([N+](=O)[O-])cc3)c(O)c2n1` [MBN115], the viability at 10 µM in the series “in vitro” worked out at 77.1 ± 0.93%.
As for `CCCc1ccc2ccccc2n1` [2PQSel], the inhibition at 10 µM in series [1] was 10.8 ± 32.4%. Besides, in the series with Leishmania spp., the “activity against Leishmania” value was “in vitro and in vivo activities”; the antileishmanial activity result is recorded as “antileishmanial activity”. Also, the viability at 10 µM in “in vitro” turned out to be 97.6 ± 2.06%.
With `COc1cc(Cc2c(C)nc3ccccc3c2C(=O)O)c(Cl)c2c(C)ccnc12` [DD3], the inhibition at 10 µM in series [1] is -156 ± 97.3%. Besides, the viability at 10 µM in “in vitro” came to 105 ± 2.54%.
Turning to `C(/C=C/c1ccc2ccccc2n1)=C\c1ccccc1` [XF906], in series [1], the inhibition at 10 µM worked out at 0.21 ± 20.3%. Moreover, the viability at 10 µM in “in vitro” was 104 ± 1.65%.
In the case of `O=[N+]([O-])c1cccc(-c2cc(Br)c(O)c3nc(/C=C/c4ccc(O)c(O)c4)ccc23)c1` [MD823], in series [1], the “inhibitory activity” value is on record as “having inhibitory activity” and the inhibition at 10 µM turned out to be 76.2 ± 3.16%. Further, in the series “in vitro”, the viability at 10 µM came to 58.9 ± 1.59%.
In the case of `Cc1ccnc2c(O)ccc(Cl)c12` [DD5], the inhibition at 10 µM in series [1] was -66.5 ± 17.8%. Besides, the viability at 10 µM in the series “in vitro” came to 51.4 ± 1.31%.
As for `O=C(c1ccccn1)c1ccc2ccc(/C=C/c3ccc(O)c(O)c3)nc2c1O` [MBN132], the inhibition at 10 µM in series [1] is -10.4 ± 57.7%. The viability at 10 µM in “in vitro” worked out at 105 ± 1.39%.
As for `N#C/C=C/c1ccc2ccccc2n1` [2CNQ], the inhibition at 10 µM in series [1] came to 3.07 ± 8.34%. The viability at 10 µM in the series “in vitro” worked out at 88 ± 3.63%.
`O=C(c1ccc(F)c(F)c1)c1ccc2ccc(/C=C/c3ccc(O)c(O)c3)nc2c1O` [MBN91]: in series [1], the “inhibitory activity” value is “having inhibitory activity” and the inhibition at 10 µM was found to be 81.8 ± 8.8%. Also, the viability at 10 µM in “in vitro” is 43.5 ± 0.73%.
With `COc1ccc(CNC(=O)Nc2ccc3ccc(C(=O)O)c(O)c3n2)cc1` [TOF401], the inhibition at 10 µM in series [1] is -44.6 ± 11.9%. Also, the viability at 10 µM in “in vitro” worked out at 106 ± 1.08%.
`CCN(CC)Cc1cc(Nc2ccnc3cc(Cl)ccc23)ccc1O` [Amodiaquine, amodiaquine dihydrochloride dihydrate, reference compound]: in series [1], the “inhibitory activity” value is listed as “significant reductions in luciferase activity”, the IC50 came out at 1.45 µM and the inhibition at 10 µM was determined as 97.7 ± 10.6%. Also, the “toxicity / cell viability (in words)” value with HEK-293T cells was “without significant toxicity”. In addition, the “inhibitory effects in pseudo-type entry assay” value in the series on Ebola virus is “inhibitory effects”. Further, the antiplasmodial activity entry in the series with Plasmodium is “antiplasmodial activity”. Also, in “in vitro”, the viability at 10 µM stood at 87.7 ± 1%.
Take `COc1ccc(/C=C/c2ccc3ccc(C(O)c4cccc(C#N)c4)c(OC)c3n2)cc1OC` (centres unmarked) [AS65]: in series [1], the inhibition at 10 µM was -10.2 ± 65.4%. The viability at 10 µM in “in vitro” turned out to be 77.51 ± 0.4%.
The corresponding values for `Cc1ccc(C(=O)c2ccc3ccc(/C=C/c4ccc(O)c(O)c4)nc3c2O)cc1[N+](=O)[O-]` [MBN140] are -68.1 ± 58.1% and 67.6 ± 0.73%.
The corresponding values for `COc1ccc(Cl)c2c(C)ccnc12` [DD4] are 49.7 ± 1.17% and 90.1 ± 1.64%.
Turning to `NC/C=C/c1ccc2ccccc2n1` [2NH2Q], in series [1], the “inhibitory activity” value is “having inhibitory activity”, the “Inhibition at 10µM (percent inhibition of trVLP replication)” value is listed as 89.74± 6.53%, the IC50 was determined as 4.66 µM and the inhibition at 10 µM was 89%. Also, in the series with HEK-293T cells, the “Viability at 10µM (MTT viability)” value came to 81.10± 2.09%. In the series “in vitro”, the viability at 10 µM was 81%.
For `OC(Cc1ccc2ccccc2n1)c1ccccc1` (centres unmarked) [2QPOH], in series [1], the inhibition at 10 µM was -114 ± 92.5%. In the series “in vitro”, the viability at 10 µM is 88.3 ± 3.26%.
For `Cc1ccc2c(C=O)cc(C=O)c(O)c2n1` [DD7] the same measures were -31.6 ± 80.9% and 90.3 ± 1.64%.
Turning to `O=C(NCc1ccc(O)c(O)c1)c1ccc2cccc(C(=O)O)c2n1` [MD20], the inhibition at 10 µM in series [1] was -124 ± 93.4%. In addition, the viability at 10 µM in “in vitro” turned out to be 108.3 ± 0.56%.
Consider `CCCCCCCCC(=O)c1ccc2ccc(/C=C/c3ccc(O)c(O)c3)nc2c1O` [MBN111], for which the inhibition at 10 µM in series [1] was -48.9 ± 87.8%. Also, the viability at 10 µM in the series “in vitro” was found to be 42.5 ± 4.97%.
For `OCCCCCCCCCCCCCCCCc1ccc2ccccc2n1` [2Q16OH] the same measures were -124 ± 30.6% and 74 ± 0.75%.
Take `CCCCOC(=O)c1ccc2ccc(/C=C/c3cc(OC)c(O)c([N+](=O)[O-])c3)nc2c1O` [FS48]: the inhibition at 10 µM in series [1] was -8.41 ± 60.4%. Moreover, in the series “in vitro”, the viability at 10 µM was determined as 81.5 ± 0.97%.
In the case of `CCCCCc1ccc2ccccc2n1` [2PentQ], the “Inhibition at 10µM (percent inhibition of trVLP replication)” value in series [1] was -6.39± 9.15%. Also, the “Viability at 10µM (MTT viability)” value with HEK-293T cells was determined as 103.48± 0.99%.
On to `O=C(O)c1ccc2ccc(/C=C/c3ccc([N+](=O)[O-])cc3)nc2c1O` [FZ142], for which the inhibition at 10 µM in series [1] came out at 63.1 ± 2.64%. In the series “in vitro”, the viability at 10 µM worked out at 102 ± 1.39%.
With `C#CC(O)CCCCCCCCCCCCC#Cc1ccc2ccccc2n1` (centres unmarked) [2Qi15], in series [1], the “inhibitory activity” value was “having inhibitory activity” and the inhibition at 10 µM worked out at 93.3 ± 4.94%. Further, in “in vitro”, the viability at 10 µM was 109.5 ± 0.25%.
